This note sets out measurements from patent publication US9649294B2, “Glucagon receptor antagonist compounds, compositions containing such compounds and methods of use” (Merck Sharp & Dohme Corp., priority 2013, dated 2017).

A short description of series [1]: Pharmacokinetic study in dog. The format is in vivo, dogs. To be noted: for MRT / half-life: PK study (IV 0.5 mg/kg, oral 2 mg/kg); for MRT: read-out: MRT, mean residence time; for half-life: read-out: T1/2, terminal half-life (converted). How it is done:
(§1) Intravenous (IV) PK studies were conducted at a dose of 1 mg/kg in hGCGR mice and rats and 0.5 mg/kg in dogs and rhesus monkeys. The IV doses were formulated in ethanol:PEG400:water (20:30:50 v/v/v). Oral PK studies were conducted at a dose of 2 mg/kg in mice, rats, dogs and monkeys. The oral doses were formulated in ethanol:PEG400:water (20:30:50 v/v/v) for dosing in mice and rats and in 0.5% methylcellulose in dogs and monkeys.
(§2) Plasma was prepared for analysis by protein precipitation with acetonitrile. Plasma concentrations were determined by LC-MS/MS using ABI Sciex API 4000 or 5000 mass spectrometers operated in atmospheric pressure chemical ionization mode with multiple-reaction monitoring.
(§3) Pharmacokinetic parameters were calculated with a non-compartmental model using Watson software (Watson Software, Thermo Fisher, Waltham, Mass., USA). The area under the plasma concentration versus time curve from 0 to 24 h (AUC0-24) was determined using linear trapezoidal interpolation in the ascending slope and logarithmic trapezoidal interpolation in the descending slope. The portion of the AUC from the last measurable concentration to infinity ([…]) was estimated by Ct/kel, where Ct represents the last measurable concentration and kel is the elimination rate constant. The latter was determined from the concentration versus time curve at the terminal phase by linear regression of the semilogarithmic plot. Oral bioavailability (F) was estimated as the AUC0-inf ratio following oral and i.v. administration normalized for differences in dose. The apparent half-life (t1/2) was estimated from the slope of the terminal phase of the log plasma concentration-time curve. MRT, the average time a compound molecule resides in the body, is calculated with the following equation: MRT=AUMC/AUC. In this equation AUMC is the area under the first moment curve and is determined as the area under the curve of a plot of the product of concentration and time versus time. AUC is equal to AUC0-inf.

Series [2] concerns the target T1, human glucagon receptor (Homo sapiens, UniProt P47871).
T1 construct: expressed in transfected cells; host or cells: CHO cells
As to the kind of experiment: Glucagon receptor binding assay (125I-glucagon, SPA, CHO cell membranes). To be noted: CHO cell membranes expressing cloned human glucagon receptor. On the procedure:
A stable CHO (Chinese hamster ovary) cell line expressing cloned human glucagon receptor was maintained as described (Chicchi et al. J Biol Chem 272, 7765-9(1997); Cascieri et al. J_Biol Chem 274, 8694-7(1999)). […] After 4-12 hours incubation at room temperature, the radioactivity bound to the cell membranes was determined in a radioactive emission detection counter (Wallac-Microbeta). Data was analyzed using the software program Prism from GraphPad. IC50 values were calculated using non-linear regression analysis assuming single site competition.

Series [3] is described as follows: Pharmacokinetic study in mouse. Format: in vivo, hGCGR mice. To be noted: for MRT / half-life: PK study (IV 1 mg/kg, oral 2 mg/kg); for MRT: read-out: MRT, mean residence time; for half-life: read-out: T1/2, terminal half-life (converted). On the procedure: as §1, §2, §3
Series [4] has as its target T1, human glucagon receptor. As to the kind of experiment: Inhibition of glucagon-stimulated intracellular cAMP formation. Format: cell-based. To be noted: CHO cells expressing human glucagon receptor; glucagon 250 pM. How it is done:
Exponentially growing CHO cells expressing human glucagon receptor were harvested with the aid of enzyme-free dissociation media (Specialty Media), pelleted at low speed, and re-suspended in the Cell Stimulation Buffer included in the Flash Plate cAMP kit (New England Nuclear, SMP0004A). The adenylate cyclase assay was setup as per manufacturer instructions. Briefly, compounds were diluted from stocks in DMSO and added to cells at a final DMSO concentration of 5%. Cells prepared as above were preincubated in flash plates coated with anti-cAMP antibodies (NEN) in presence of compounds or DMSO controls for 30 minutes, and then stimulated with glucagon (250 pM) for an additional 30 minutes. The cell stimulation was stopped by addition of equal amount of a detection buffer containing lysis buffer as well as ^125I-labeled cAMP tracer (NEN). After 3 hours of incubation at room temperature the bound radioactivity was determined in a liquid scintillation counter (TopCount-Packard Instruments). Basal activity (100% inhibition) was determined using the DMSO control while 0% inhibition was defined at the amount of pmol cAMP produced by 250 pM glucagon.

Series [5] in a line: Pharmacokinetic study in rat. To be noted: for MRT / half-life: PK study (IV 1 mg/kg, oral 2 mg/kg); for MRT: read-out: MRT, mean residence time; for half-life: read-out: T1/2, terminal half-life (converted). The format is in vivo, rats. How it is done:
as §1, §2, §3

Series [6] in a line: Pharmacokinetic study in rhesus monkey. Format: in vivo, rhesus monkeys. To be noted: for MRT / half-life: PK study (IV 0.5 mg/kg, oral 2 mg/kg); for MRT: read-out: MRT, mean residence time; for half-life: read-out: T1/2, terminal half-life (converted). On the procedure:
as §1, §2, §3

T1 sequence (P47871 26-477): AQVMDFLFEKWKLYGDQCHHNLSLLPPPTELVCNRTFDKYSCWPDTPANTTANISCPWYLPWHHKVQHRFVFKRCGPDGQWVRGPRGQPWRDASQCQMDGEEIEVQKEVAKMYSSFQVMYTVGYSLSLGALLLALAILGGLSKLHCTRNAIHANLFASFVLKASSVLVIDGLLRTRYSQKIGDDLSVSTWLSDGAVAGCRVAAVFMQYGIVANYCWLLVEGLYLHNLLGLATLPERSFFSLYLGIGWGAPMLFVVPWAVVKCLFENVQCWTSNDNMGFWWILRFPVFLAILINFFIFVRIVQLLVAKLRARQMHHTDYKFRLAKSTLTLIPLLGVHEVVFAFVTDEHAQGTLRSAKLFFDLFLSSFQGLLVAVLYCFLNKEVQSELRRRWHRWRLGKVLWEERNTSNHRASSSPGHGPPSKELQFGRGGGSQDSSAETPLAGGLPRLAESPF

A word on the clearance: it is the rate of elimination divided by the concentration. The term MRT denotes the average time that molecules of a dose stay in the body. In general, bioavailability refers to dose-corrected exposure relative to a reference, in per cent. In general, IC50 refers to the concentration at which inhibition is half-maximal. Turning to `CCC[C@H](c1ccc(C(=O)NCCC(=O)O)cc1)[C@H](c1ccc(OC(F)(F)F)cc1)c1c[nH]c2c(F)cc(Cl)cc12` [Example 1, 3-(4-((1R,2S)-1-(5-Chloro-7-Fluoro-1H-Indol-3-yl)-1-(4-(Trifluoromethoxy)Phenyl)Pentan-2-yl)Benzamido)Propanoic Acid], the “MRT longer compared to MK-3577” value in series [1] was “ca. 3.8 fold”; in series [6] it was about 3.4 fold. Moreover, the “T1/2 longer compared to MK-3577” value was “ca. 3.3 fold” in series [1], about 2.9 fold in series [3], about 1.5 fold in series [5] and about 2.2 fold in series [6]. Further, the “Oral AUCnorm(0-∞)” value amounted to 16 µM·kg·h/mg in series [1] (oral 2 mg/kg, dose-normalized); 8.0 µM·kg·h/mg in series [3] (oral 2 mg/kg, dose-normalized); 1.2 µM·kg·h/mg in series [5] (oral 2 mg/kg, dose-normalized); 6 µM·kg·h/mg in series [6] (oral 2 mg/kg, dose-normalized). Besides, the clearance in series [1] (plasma, IV 0.5 mg/kg, read-out: Clp, plasma clearance) is 0.63 mL/min/kg; in series [3] (hGCGR, plasma, IV 1 mg/kg, read-out: Clp, plasma clearance), 3.5 mL/min/kg; in series [5] (plasma, IV 1 mg/kg, read-out: Clp, plasma clearance) it was 18 mL/min/kg; in series [6] (rhesus monkey, plasma, IV 0.5 mg/kg, read-out: Clp, plasma clearance), 3 mL/min/kg. Also, the Vd in series [1] (plasma, IV 0.5 mg/kg, read-out: Vdss, volume of distribution at steady state) is 0.72 L/kg; in series [3] (hGCGR, plasma, IV 1 mg/kg, read-out: Vdss, volume of distribution at steady state) it was 2.2 L/kg; in series [5] (plasma, IV 1 mg/kg, read-out: Vdss, volume of distribution at steady state), 3.2 L/kg; in series [6] (rhesus monkey, plasma, IV 0.5 mg/kg, read-out: Vdss, volume of distribution at steady state) it was 2 L/kg. Also, the MRT was determined as 20 h in series [1] (plasma); 10 h in series [3] (hGCGR, plasma); 2.9 h in series [5] (plasma); 11 h in series [6] (rhesus monkey, plasma). Also, the half-life in series [1] (plasma) is 16 h; in series [3] (hGCGR, plasma), 8.2 h; in series [5] (plasma) it was 2.2 h; in series [6] (rhesus monkey, plasma) it was 11 h. The bioavailability in series [1] (plasma, oral 2 mg/kg vs IV 0.5 mg/kg, read-out: F, oral bioavailability) was found to be 30%; in series [3] (hGCGR, plasma, oral 2 mg/kg vs IV 1 mg/kg, read-out: F, oral bioavailability) it was 87%; in series [5] (plasma, oral 2 mg/kg vs IV 1 mg/kg, read-out: F, oral bioavailability) it was 76%; in series [6] (rhesus monkey, plasma, oral 2 mg/kg vs IV 0.5 mg/kg, read-out: F, oral bioavailability), 47%. Moreover, the IC50 at human glucagon receptor [2] came out at 0.24 nM; against human glucagon receptor [4], 19.2 nM. Further, the “MRT compared to MK-3577” value in series [3] is about 4.5 fold; in series [5] it was “over 3 fold”.

For `CCC[C@H](c1ccc(C(=O)NCCC(=O)O)cc1)[C@H](c1ccc(Cl)cc1)c1c[nH]c2c(F)cc(C)cc12` [MK3577, reference compound], the mean residence time (MRT) was 5.2 h in series [1] (plasma); 2.2 h in series [3] (hGCGR, plasma); 0.9 h in series [5] (plasma); 3.2 h in series [6] (rhesus monkey, plasma). The half-life in series [1] (plasma) was 4.9 h; in series [3] (hGCGR, plasma) it was 2.8 h; in series [5] (plasma), 1.4 h; in series [6] (rhesus monkey, plasma), 5.1 h.
